Structures are written as SMILES.

The target of assay [1] is T1, human H3 receptor (Homo sapiens, UniProt Q9Y5N1).
T1 construct: expressed in transfected cells
Put plainly: H3 receptor binding (N-[3H]-α-methylhistamine displacement). The conditions noted are these: membranes of SK-N-MC cells expressing cloned human H3 receptor, 0.8 nM N-[3H]-α-methylhistamine, 60 min at 25° C. The protocol: Briefly, cell pellets from SK-N-MC cells expressing the human H3 receptor were homogenized in 50 mM Tris-HCl/5 mM EDTA and re-centrifuged at 30,000 g for 30 min. Pellets were re-homogenized in 50 mM Tris/6 mM EDTA (pH 7.4). Membranes were incubated with 0.8 nM N-[^3H]-α-methylhistamine plus/minus test compounds for 60 min at 25° C. and harvested by rapid filtration over GF/C glass fiber filters (pretreated with 0.3% polyethylenimine) followed by four washes with ice-cold buffer. Nonspecific binding was defined in the presence of 10 μM histamine.

Assay [2] deals with T2, Rat SERT (Rattus norvegicus, UniProt P31652).
T2 construct: A rat brain without cerebellum (Zivic Laboratories, Inc.—Pittsburgh, Pa.) was homogenized; tissue Zivic Laboratories, Inc; host or cells: rat brain without cerebellum, membranes
As to the kind of experiment: Rat brain SERT binding ([3H]-citalopram displacement). The conditions noted are these: rat brain membranes without cerebellum, 0.6 nM [3H]-citalopram, 60 min at 25° C.; read-out: Rat SERT Ki. The protocol:
The supernatant was removed and re-centrifuged at 15,000 rpm for 30 min. […] Membranes were incubated with 0.6 nM [^3H]-Citalopram plus/minus test compounds for 60 min at 25° C. and harvested by rapid filtration over GF/C glass fiber filters (pretreated with 0.3% polyethylenimine) followed by four washes with ice-cold buffer.

T2 sequence (P31652 whole entry): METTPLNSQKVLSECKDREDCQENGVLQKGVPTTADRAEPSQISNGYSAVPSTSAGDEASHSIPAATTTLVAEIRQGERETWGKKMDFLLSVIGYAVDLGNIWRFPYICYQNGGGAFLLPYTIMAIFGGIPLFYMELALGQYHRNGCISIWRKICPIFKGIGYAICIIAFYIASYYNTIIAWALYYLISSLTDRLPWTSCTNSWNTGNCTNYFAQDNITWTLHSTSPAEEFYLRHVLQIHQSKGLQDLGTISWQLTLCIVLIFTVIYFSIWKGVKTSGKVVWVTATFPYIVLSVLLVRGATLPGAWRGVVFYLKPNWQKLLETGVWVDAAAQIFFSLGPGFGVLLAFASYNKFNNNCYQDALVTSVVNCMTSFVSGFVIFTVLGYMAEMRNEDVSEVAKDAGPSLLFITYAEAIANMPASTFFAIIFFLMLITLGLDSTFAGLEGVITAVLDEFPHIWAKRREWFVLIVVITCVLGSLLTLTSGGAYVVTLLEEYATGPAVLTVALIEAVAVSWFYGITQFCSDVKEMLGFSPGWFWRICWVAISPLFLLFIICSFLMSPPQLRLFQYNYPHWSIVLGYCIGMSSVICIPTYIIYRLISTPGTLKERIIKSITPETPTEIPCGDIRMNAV
T1 sequence (Q9Y5N1 whole entry): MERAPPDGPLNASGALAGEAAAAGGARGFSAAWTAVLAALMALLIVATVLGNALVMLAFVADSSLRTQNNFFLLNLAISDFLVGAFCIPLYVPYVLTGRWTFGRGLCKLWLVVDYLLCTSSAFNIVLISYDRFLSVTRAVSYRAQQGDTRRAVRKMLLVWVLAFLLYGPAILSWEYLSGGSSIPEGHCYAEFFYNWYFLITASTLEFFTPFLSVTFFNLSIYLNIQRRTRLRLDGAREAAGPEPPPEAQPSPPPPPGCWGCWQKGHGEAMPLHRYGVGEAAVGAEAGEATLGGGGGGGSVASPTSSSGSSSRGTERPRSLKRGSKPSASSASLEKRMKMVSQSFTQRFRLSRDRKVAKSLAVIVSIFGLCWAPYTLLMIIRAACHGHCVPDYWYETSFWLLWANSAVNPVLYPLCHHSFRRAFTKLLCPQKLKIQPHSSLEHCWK

What is called Ki is the dissociation constant of the complex between target and ligand, obtained from inhibition or displacement. For `CCCNCCCOc1ccc2c(c1)CN(C)CC2c1ccc(OC)cc1` (stereo not shown) [Example 231, {3-[4-(4-Methoxy-phenyl)-2-methyl-1,2,3,4-tetrahydro-isoquinolin-7-yloxy]-propyl}-propyl-amine], the results for the inhibitory constant (Ki) in assay [1] and in assay [2] were 61 nM and 2 nM, respectively. The matching figures for `COc1ccc(C2CN(C)Cc3cc(OCCCN(C4CC4)C4CC4)ccc32)cc1` (stereo not shown) [Example 235, Dicyclopropyl-{3-[4-(4-methoxy-phenyl)-2-methyl-1,2,3,4-tetrahydro-isoquinolin-7-yloxy]-propyl}-amine]: 6 nM and 7 nM. The like results for `CSc1ccc(C2CN(C)Cc3cc(OCC4CCNCC4)ccc32)cc1` (stereo not shown) [Example 80, 2-Methyl-4-(4-methylsulfanyl-phenyl)-7-(piperidin-4-ylmethoxy)-1,2,3,4-tetrahydro-isoquinoline] were, in that order, 130 nM and 3 nM. The matching figures for `COc1ccc(C2CN(C)Cc3cc(OCCCN4CCN(C5CC5)CC4)ccc32)cc1` (stereo not shown) [Example 212, 7-[3-(4-Cyclopropyl-piperazin-1-yl)-propoxy]-4-(4-methoxy-phenyl)-2-methyl-1,2,3,4-tetrahydro-isoquinoline]: 43 nM and 9 nM. For the compound `CCCN1CCC(COc2ccc3c(c2)CN(C)CC3c2ccc(OC)cc2F)CC1` (stereo not shown) [Example 114, 4-(2-Fluoro-4-methoxy-phenyl)-2-methyl-7-(1-propyl-piperidin-4-ylmethoxy)-1,2,3,4-tetrahydro-isoquinoline], the inhibition constant (Ki) was 4 nM in assay [1] and 9 nM in assay [2]. The like results for `COc1ccc(C2CN(C)Cc3cc(OCCCN4CCOC[C@@H]4C)ccc32)cc1F` (stereo partly drawn) [Example 221, 4-(3-Fluoro-4-methoxy-phenyl)-2-methyl-7-[3-(3S-methyl-morpholin-4-yl)-propoxy]-1,2,3,4-tetrahydro-isoquinoline] were, in that order, 9 nM and 11 nM.

As to `COc1ccc(C2CN(C)Cc3cc(OCC4CCN(C(C)C)CC4)ccc32)cc1F` (stereo not shown) [Example 89, 4-(3-Fluoro-4-methoxy-phenyl)-7-(1-isopropyl-piperidin-4-ylmethoxy)-2-methyl-1,2,3,4-tetrahydro-isoquinoline], the Ki in assay [1] turned out to be 2 nM; in assay [2], 5 nM. The matching figures for `COc1ccc(C2CN(C)Cc3cc(OC[C@@H]4CNCCO4)ccc32)cc1` (stereo partly drawn) [Example 252, 4-(4-Methoxy-phenyl)-2-methyl-7-(morpholin-2S-ylmethoxy)-1,2,3,4-tetrahydro-isoquinoline]: 233 nM and 2 nM. The like results for `CN1Cc2cc(OCCCN3CCC(F)CC3)ccc2C(c2ccc(SC(F)(F)F)cc2)C1` (stereo not shown) [Example 217, 7-[3-(4-Fluoro-piperidin-1-yl)-propoxy]-2-methyl-4-(4-trifluoromethylsulfanyl-phenyl)-1,2,3,4-tetrahydro-isoquinoline] were, in that order, 42 nM and 58 nM.

As for `CN1Cc2cc(OCCCN3CCC(F)CC3)ccc2C(c2ccccc2Cl)C1` (stereo not shown) [Example 132, 4-(2-Chloro-phenyl)-7-[3-(4-fluoro-piperidin-1-yl)-propoxy]-2-methyl-1,2,3,4-tetrahydro-isoquinoline], the Ki was 4 nM in assay [1] and 19 nM in assay [2]. Turning to `COc1ccc(C2CN(C)Cc3cc(OCCC4CCCN4C)ccc32)cc1` (single isomer, unassigned) [Example 240B, 4-(4-Methoxy-phenyl)-2-methyl-7-[2-(1-methyl-pyrrolidin-2-yl)-ethoxy]-1,2,3,4-tetrahydro-isoquinoline], the Ki is 21 nM in assay [1] and 5 nM in assay [2]. In the case of `COc1ccc(C2CN(C)Cc3cc(OCCCN(C)C4CC4)ccc32)cc1` (stereo not shown) [Example 234, Cyclopropyl-{3-[4-(4-methoxy-phenyl)-2-methyl-1,2,3,4-tetrahydro-isoquinolin-7-yloxy]-propyl}-methyl-amine], the inhibition constant Ki in assay [1] and in assay [2] was 3 nM each time.

As to `COc1ccc(C2CN(C)Cc3cc(OCCCN4CC(F)(F)C4)ccc32)cc1` (stereo not shown) [Example 182, 7-[3-(3,3-Difluoro-azetidin-1-yl)-propoxy]-4-(4-methoxy-phenyl)-2-methyl-1,2,3,4-tetrahydro-isoquinoline], the figures for the Ki in assay [1] and in assay [2] were 59 nM and 2 nM, respectively.

Turning to `CSc1ccc(C2CN(C)Cc3cc(OCC4CCN(CCF)CC4)ccc32)cc1` (stereo not shown) [Example 178, 7-[1-(2-Fluoro-ethyl)-piperidin-4-ylmethoxy]-2-methyl-4-(4-methylsulfanyl-phenyl)-1,2,3,4-tetrahydro-isoquinoline], the Ki in assay [1] worked out at 18 nM; in assay [2], 6 nM. The matching figures for `COc1ccc(C2CN(C)Cc3cc(OC[C@H]4CNCCO4)ccc32)cc1` (stereo partly drawn) [Example 253, 4-(4-Methoxy-phenyl)-2-methyl-7-(morpholin-2R-ylmethoxy)-1,2,3,4-tetrahydro-isoquinoline]: 263 nM and 2 nM. The like results for `CN1Cc2cc(OCCCN3CCC(F)CC3)ccc2C(c2cccc(OC(F)(F)F)c2)C1` (stereo not shown) [Example 128, 7-[3-(4-Fluoro-piperidin-1-yl)-propoxy]-2-methyl-4-(3-trifluoromethoxy-phenyl)-1,2,3,4-tetrahydro-isoquinoline] were, in that order, 12 nM and 40 nM. The like results for `COc1ccc(C2CN(C)Cc3cc(OCC4CCNCC4)ccc32)cc1Cl` (stereo not shown) [Example 79, 4-(3-Chloro-4-methoxy-phenyl)-2-methyl-7-(piperidin-4-ylmethoxy)-1,2,3,4-tetrahydro-isoquinoline] were, in that order, 183 nM and 5 nM.

Regarding `COc1ccc(C2CN(C)Cc3cc(OCCCN4CCC(F)CC4)ccc32)c(F)c1` (racemic) [Example 139, 4-(2-Fluoro-4-methoxy-phenyl)-7-[3-(4-fluoro-piperidin-1-yl)-propoxy]-2-methyl-1,2,3,4-tetrahydro-isoquinoline], in assay [2], the Ki was 6 nM. Consider `COc1ccc(C2CN(C)Cc3cc(OCCCN4CCN(c5ccc(C#N)cc5)CC4)ccc32)cc1` (stereo not shown) [Example 208, 4-(4-{3-[4-(4-Methoxy-phenyl)-2-methyl-1,2,3,4-tetrahydro-isoquinolin-7-yloxy]-propyl}-piperazin-1-yl)-benzonitrile], for which the Ki in assay [1] came out at 137 nM; in assay [2] it was 4 nM.

Regarding `COc1ccc(C2CN(C)Cc3cc(OCCCN4CCN(CC5CCCO5)CC4)ccc32)cc1` (stereo not shown) [Example 210, 4-(4-Methoxy-phenyl)-2-methyl-7-{3-[4-(tetrahydro-furan-2-ylmethyl)-piperazin-1-yl]-propoxy}-1,2,3,4-tetrahydro-isoquinoline], the Ki came to 99 nM in assay [1] and 10 nM in assay [2].

As for `COc1ccc(C2CN(C)Cc3cc(OCCCN(C4CC4)C4CCN(C)CC4)ccc32)cc1` (stereo not shown) [Example 224, Cyclopropyl-{3-[4-(4-methoxy-phenyl)-2-methyl-1,2,3,4-tetrahydro-isoquinolin-7-yloxy]-propyl}-(1-methyl-piperidin-4-yl)-amine], the Ki in assay [1] amounted to 61 nM; in assay [2], 32 nM. Turning to `CN1Cc2cc(OCCCN3CCC(F)CC3)ccc2C(c2ccccc2F)C1` (stereo not shown) [Example 125, 4-(2-Fluoro-phenyl)-7-[3-(4-fluoro-piperidin-1-yl)-propoxy]-2-methyl-1,2,3,4-tetrahydro-isoquinoline], the figures for the Ki in assay [1] and in assay [2] were 2 nM and 45 nM, respectively. With `COc1ccc(C2CN(Cc3ccccc3)Cc3cc(OCCCN4CCC(F)CC4)ccc32)cc1` (stereo not shown) [Example 127, 2-Benzyl-7-[3-(4-fluoro-piperidin-1-yl)-propoxy]-4-(4-methoxy-phenyl)-1,2,3,4-tetrahydro-isoquinoline], the Ki was 39 nM in assay [1] and 5000 nM in assay [2]. For `COc1ccc(C2CN(C)Cc3cc(OCC4CCN(CC(C)(C)O)CC4)ccc32)cc1` (stereo not shown) [Example 250, 1-{4-[4-(4-Methoxy-phenyl)-2-methyl-1,2,3,4-tetrahydro-isoquinolin-7-yloxymethyl]-piperidin-1-yl}-2-methyl-propan-2-ol], the Ki in assay [1] stood at 34 nM; in assay [2], 4 nM.

Turning to `COc1ccc(C2CN(C)Cc3cc(OCC4CCNCC4)ccc32)cc1F` (stereo not shown) [Example 81, 4-(3-Fluoro-4-methoxy-phenyl)-2-methyl-7-(piperidin-4-ylmethoxy)-1,2,3,4-tetrahydro-isoquinoline], the inhibition constant (Ki) in assay [1] stood at 70 nM; in assay [2], 1 nM. Turning to `COc1ccc(C2CN(C)Cc3cc(OCCCN4CCC(F)CC4)ccc32)c(F)c1` (single isomer, unassigned) [Example 141, 4-(2-Fluoro-4-methoxy-phenyl)-7-[3-(4-fluoro-piperidin-1-yl)-propoxy]-2-methyl-1,2,3,4-tetrahydro-isoquinoline], the inhibition constant (Ki) in assay [2] turned out to be 3 nM. Same read-out and setting: the same measure for `COc1ccc(C2CN(C)Cc3cc(OCC4CCN(C(C)C)CC4)ccc32)c(F)c1` (stereo not shown) [Example 90, 4-(2-Fluoro-4-methoxy-phenyl)-7-(1-isopropyl-piperidin-4-ylmethoxy)-2-methyl-1,2,3,4-tetrahydro-isoquinoline]: 9 nM; for `COc1ccc(C2CN(C)Cc3cc(OCCCN4CCC(F)CC4)ccc32)c(F)c1` (single isomer, unassigned) [Example 140, 4-(2-Fluoro-4-methoxy-phenyl)-7-[3-(4-fluoro-piperidin-1-yl)-propoxy]-2-methyl-1,2,3,4-tetrahydro-isoquinoline]: 28 nM.

These data come from patent US20060194837A1, “Tetrahydroisoquinoline compounds” (priority 2004, published 2006).
